Assay results: PubChem BioAssay (NCI)
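Briefly, cells in 96-well plates were exposed to five compound concentrations for 48 h, and endpoints were estimated by linear interpolation. The concentration for 50% growth inhibition is given as GI50. TGI is the concentration that stops growth completely.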

Tests used:
Assay in all cases: DTP human tumour cell line panel, 48 h
[1] = system: SN12C renal
[2] = system: LOX IMVI melanoma
[3] = system: MDA-MB-435
[4] = system: HS 578T breast
[5] = system: HCT-15 colon
[6] = system: DU-145 prostate
[7] = system: HT29 colon
[8] = system: A549 NSCLC
[9] = system: OVCAR-8 ovarian
[10] = system: K-562 leukemia
[11] = system: OVCAR-4 ovarian
[12] = system: ACHN renal
[13] = system: MCF7 breast
[14] = system: OVCAR-5 ovarian
[15] = system: SK-MEL-28 melanoma
[16] = system: MALME-3M melanoma
[17] = system: SW-620 colon
[18] = system: SK-MEL-5 melanoma
[19] = system: NCI-H522 lung
[20] = system: UACC-62 melanoma
[21] = system: IGROV1 ovarian
[22] = system: PC-3 prostate
[23] = system: SNB-75 CNS
[24] = system: EKVX NSCLC
[25] = system: MDA-MB-231 breast
[26] = system: NCI/ADR-RES ovarian
[27] = system: CCRF-CEM leukemia
[28] = system: NCI-H23 lung
[29] = system: UACC-257 melanoma

Nc1ncc(-c2ccc3ncnc(N4CCc5cc(F)c(Cl)cc54)c3c2)cc1CO
GI50 [1]: 0.435 µM | TGI [1]: 11.2 µM | GI50 [2]: 0.747 µM | TGI [2]: 3.94 µM | GI50 [3]: 0.418 µM | TGI [3]: 1.99 µM | GI50 [4]: 0.404 µM | TGI [4]: 2.94 µM | GI50 [5]: 0.798 µM | TGI [5]: 5.25 µM | GI50 [6]: 0.619 µM | TGI [6]: > 41.8 µM | GI50 [7]: 0.95 µM | TGI [7]: 10.2 µM | GI50 [8]: 0.522 µM | TGI [8]: 3.21 µM | GI50 [9]: 0.883 µM | TGI [9]: 10.4 µM | GI50 [10]: 0.887 µM | TGI [10]: > 23.2 µM | GI50 [11]: 0.615 µM | TGI [11]: 5.23 µM | GI50 [12]: 0.365 µM | TGI [12]: 20.5 µM | GI50 [13]: 0.21 µM | TGI [13]: 2.52 µM | GI50 [14]: 0.422 µM | TGI [14]: 12.1 µM | GI50 [15]: 0.393 µM | TGI [15]: 5.21 µM | GI50 [16]: 0.186 µM | TGI [16]: 1.42 µM | GI50 [17]: 1.64 µM | TGI [17]: 9.48 µM | GI50 [18]: 0.838 µM | TGI [18]: 2.2 µM | GI50 [19]: 0.419 µM | TGI [19]: 3.02 µM | GI50 [20]: 0.266 µM | TGI [20]: 1.61 µM | GI50 [21]: 0.178 µM | TGI [21]: 0.724 µM | GI50 [22]: 0.343 µM | TGI [22]: 25.1 µM | GI50 [23]: 0.0506 µM | TGI [23]: 1.11 µM | GI50 [24]: 0.259 µM | TGI [24]: 1.93 µM | GI50 [25]: 0.697 µM | TGI [25]: 6.54 µM | GI50 [26]: 1.66 µM | TGI [26]: 9.1 µM | GI50 [27]: 1.58 µM | TGI [27]: 11.2 µM | GI50 [28]: 0.803 µM | TGI [28]: 3.72 µM | GI50 [29]: 0.644 µM | TGI [29]: 4.31 µM
